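All cell lines were grown in 96-well plates and treated with compound for 48 hours. GI50 marks 50% less growth. TGI marks complete inhibition of growth.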 Where a SMILES comes first, the peptide text is derived from it. The star is where a group is joined. Cbz = O=C(OCc1ccccc1)*; Boc = CC(C)(C)OC(=O)*; tBu = CC(C)(C)*

Some test systems named below: OVCAR-5 ovarian; SR leukemia; HCT-15 colon; OVCAR-8 ovarian; CAKI-1 renal; HCC-2998 colon; MDA-MB-435; MDA-N; HT29 colon; OVCAR-4 ovarian; UO-31 renal; SN12C renal; A549 NSCLC; SF-295 CNS; HS 578T breast.
Assay in all cases: NCI tumour cell line growth inhibition, 48 h

Turning to `CC(OC(C)(C)C)C(NC(=O)C(CCCCNC(=O)OC(C)(C)C)NC(=O)C(Cc1c[nH]c2ccccc12)NC(=O)C(Cc1ccccc1)NC(=O)OCc1ccccc1)C(=O)NC(Cc1ccccc1)C(=O)O` (stereo unspecified) (Cbz-FWK(Boc)T(tBu)F-OH; configuration not given here), the TGI with OVCAR-5 ovarian, in the assay on SR leukemia, in the assay on HCT-15 colon, in the assay with OVCAR-8 ovarian, with CAKI-1 renal and with HCC-2998 colon was over 100 µM throughout. The TGI with MDA-MB-435 was over 100 µM; in the assay on MDA-N it was over 100 µM; in the assay on HT29 colon, over 100 µM; with OVCAR-4 ovarian it was over 100 µM; with UO-31 renal, over 100 µM; in the assay with SN12C renal, 62.6 µM. Further, the TGI is over 100 µM in the assay with A549 NSCLC, over 100 µM in the assay with SF-295 CNS and 44.4 µM in the assay on HS 578T breast.
With `Cc1ccc(-c2c3nc(c(-c4ccc(C)cc4)c4ccc([nH]4)c(-c4ccc(OCC5COC(C)(C)O5)cc4)c4nc(c(-c5ccc(C)cc5)c5ccc2[nH]5)C=C4)C=C3)cc1` (stereo unspecified), the TGI with OVCAR-5 ovarian is over 31.6 µM; in the assay on SR leukemia it was over 31.6 µM; in the assay on HCT-15 colon it was over 31.6 µM; in the assay with OVCAR-8 ovarian, over 31.6 µM; in the assay on CAKI-1 renal, over 100 µM; in the assay with HCC-2998 colon, over 31.6 µM. In addition, the TGI in the assay with MDA-MB-435, in the assay on MDA-N, in the assay on HT29 colon, with OVCAR-4 ovarian, in the assay on UO-31 renal and in the assay with SN12C renal was over 31.6 µM each time. Moreover, the TGI in the assay on A549 NSCLC was over 31.6 µM; in the assay with SF-295 CNS, over 31.6 µM; in the assay with HS 578T breast, over 100 µM.
As for `O=C1C(Cl)C(c2cccc(Cl)c2)N1c1ccc(-n2c(=S)[nH]c3ccccc3c2=O)cc1` (stereo unspecified), the TGI with OVCAR-5 ovarian is 57.5 µM; in the assay with SR leukemia, 30 µM; in the assay on HCT-15 colon, 14.4 µM; in the assay on OVCAR-8 ovarian it was over 100 µM; with CAKI-1 renal, over 100 µM; in the assay with HCC-2998 colon, 37.8 µM. In addition, the TGI in the assay on MDA-MB-435 amounted to 36.6 µM; with MDA-N, 54.7 µM; in the assay on HT29 colon it was 43.3 µM; with OVCAR-4 ovarian, 39.6 µM; in the assay on UO-31 renal, 49 µM; with SN12C renal, 31.9 µM. Also, the TGI in the assay on A549 NSCLC was 81.5 µM; in the assay on SF-295 CNS it was 41.8 µM; in the assay on HS 578T breast, 62.1 µM.
In the case of `O=C1CCCC2(c3ccccc3)Nc3ccccc3N12` (stereo unspecified), the TGI with OVCAR-5 ovarian, in the assay on SR leukemia, in the assay on HCT-15 colon, with OVCAR-8 ovarian, in the assay on CAKI-1 renal and in the assay on HCC-2998 colon was over 100 µM in each case. Further, the TGI in the assay with MDA-MB-435, in the assay with MDA-N, in the assay on HT29 colon, in the assay on OVCAR-4 ovarian, with UO-31 renal and with SN12C renal was over 100 µM throughout. The TGI in the assay on A549 NSCLC, in the assay with SF-295 CNS and in the assay on HS 578T breast was over 100 µM throughout.
Regarding `COC(=O)CCc1cc(O)c2c(c1)C(C(=O)OC)C(c1ccc(O)c(O)c1)O2` (stereo unspecified), the TGI with OVCAR-5 ovarian was over 100 µM; in the assay on SR leukemia it was over 25.5 µM; in the assay on HCT-15 colon it was over 100 µM; in the assay on OVCAR-8 ovarian it was 65.1 µM; with CAKI-1 renal it was over 100 µM; with HCC-2998 colon, 39.8 µM. The TGI in the assay with MDA-MB-435 was 4.67 µM; in the assay with MDA-N, 13.3 µM; with HT29 colon, over 96.4 µM; in the assay on OVCAR-4 ovarian it was over 100 µM; with UO-31 renal it was over 100 µM; in the assay on SN12C renal, over 88.7 µM. The TGI in the assay on A549 NSCLC was over 100 µM; with SF-295 CNS it was 97 µM; in the assay with HS 578T breast, over 95.9 µM.
`Cc1ccc(NC(=O)c2cccc(OP(=O)(O)Nc3ccc(C)cc3)c2)cc1`: the TGI with OVCAR-5 ovarian, in the assay on SR leukemia, in the assay with HCT-15 colon, with OVCAR-8 ovarian, in the assay on CAKI-1 renal and in the assay on HCC-2998 colon was over 100 µM throughout. Moreover, the TGI in the assay on MDA-MB-435, in the assay on MDA-N, with HT29 colon, in the assay on OVCAR-4 ovarian, with UO-31 renal and in the assay with SN12C renal was over 100 µM each time. Further, the TGI with A549 NSCLC, in the assay with SF-295 CNS and in the assay on HS 578T breast was over 100 µM in each case.
With `CCOP(=O)(CN1CCNCCNCC1)OCC`, the TGI in the assay with OVCAR-5 ovarian, with SR leukemia, with HCT-15 colon, in the assay on OVCAR-8 ovarian, in the assay on CAKI-1 renal and with HCC-2998 colon was over 100 µM throughout. Besides, the TGI in the assay with MDA-MB-435, in the assay with MDA-N, in the assay with HT29 colon, in the assay with OVCAR-4 ovarian, with UO-31 renal and in the assay with SN12C renal was over 100 µM each time. The TGI with A549 NSCLC, in the assay on SF-295 CNS and in the assay with HS 578T breast was over 100 µM throughout.
As to `CCNc1cc2c(cc1O)CC[C@@H]1[C@@H]2CC[C@]2(C)[C@@H](O)CC[C@@H]12`, the TGI in the assay with OVCAR-5 ovarian amounted to 34.7 µM; with SR leukemia, 41.2 µM; in the assay on HCT-15 colon, 15 µM; in the assay with OVCAR-8 ovarian it was 24.1 µM; in the assay on CAKI-1 renal it was 27.2 µM; with HCC-2998 colon, 7.33 µM. The TGI with MDA-MB-435 worked out at 0.712 µM; with MDA-N it was 2.14 µM; in the assay with HT29 colon it was 33.7 µM; in the assay on OVCAR-4 ovarian it was 21.5 µM; in the assay with UO-31 renal, 24.3 µM; with SN12C renal, 29.1 µM. Besides, the TGI turned out to be 54.6 µM in the assay with A549 NSCLC, 13.3 µM with SF-295 CNS and 35 µM with HS 578T breast. Also, in the assay with MDA-MB-435, the GI50 is 0.0515 µM.
